# Experimental data as given in patent publication US9127040B2, “Regulation of sodium channels by PLUNC proteins” (The University of North Carolina at Chapel Hill, priority 2011, dated 2015).
# Ends that are not written are not given here.
# Molecular target: T1, ENaC (Homo sapiens, UniProt P37088+P51168+P51170)
# T1 construct: measured the transepithelial voltage under thin film conditions in human bronchial epithelial cultures; endogenous in cells; host or cells: primary human bronchial epithelial cultures (normal or CF donors)
# T1 sequence (P37088 1-669): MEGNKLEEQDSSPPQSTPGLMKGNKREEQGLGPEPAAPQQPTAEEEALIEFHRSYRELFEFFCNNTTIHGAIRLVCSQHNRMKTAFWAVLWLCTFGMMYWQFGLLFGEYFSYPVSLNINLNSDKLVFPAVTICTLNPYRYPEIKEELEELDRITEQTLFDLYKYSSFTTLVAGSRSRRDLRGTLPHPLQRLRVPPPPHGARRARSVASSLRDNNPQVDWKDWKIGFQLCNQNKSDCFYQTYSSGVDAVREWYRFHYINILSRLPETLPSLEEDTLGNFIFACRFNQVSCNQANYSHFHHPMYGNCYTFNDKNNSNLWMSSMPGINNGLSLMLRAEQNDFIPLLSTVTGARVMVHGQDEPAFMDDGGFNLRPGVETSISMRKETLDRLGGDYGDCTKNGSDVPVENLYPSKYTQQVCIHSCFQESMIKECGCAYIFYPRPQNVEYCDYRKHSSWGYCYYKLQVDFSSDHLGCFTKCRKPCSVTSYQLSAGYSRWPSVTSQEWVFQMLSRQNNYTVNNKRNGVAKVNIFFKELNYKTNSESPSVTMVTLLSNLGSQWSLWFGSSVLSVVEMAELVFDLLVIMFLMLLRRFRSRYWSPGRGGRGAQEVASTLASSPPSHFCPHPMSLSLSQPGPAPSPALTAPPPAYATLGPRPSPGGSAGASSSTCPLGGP
# T1 sequence (P51168 1-640): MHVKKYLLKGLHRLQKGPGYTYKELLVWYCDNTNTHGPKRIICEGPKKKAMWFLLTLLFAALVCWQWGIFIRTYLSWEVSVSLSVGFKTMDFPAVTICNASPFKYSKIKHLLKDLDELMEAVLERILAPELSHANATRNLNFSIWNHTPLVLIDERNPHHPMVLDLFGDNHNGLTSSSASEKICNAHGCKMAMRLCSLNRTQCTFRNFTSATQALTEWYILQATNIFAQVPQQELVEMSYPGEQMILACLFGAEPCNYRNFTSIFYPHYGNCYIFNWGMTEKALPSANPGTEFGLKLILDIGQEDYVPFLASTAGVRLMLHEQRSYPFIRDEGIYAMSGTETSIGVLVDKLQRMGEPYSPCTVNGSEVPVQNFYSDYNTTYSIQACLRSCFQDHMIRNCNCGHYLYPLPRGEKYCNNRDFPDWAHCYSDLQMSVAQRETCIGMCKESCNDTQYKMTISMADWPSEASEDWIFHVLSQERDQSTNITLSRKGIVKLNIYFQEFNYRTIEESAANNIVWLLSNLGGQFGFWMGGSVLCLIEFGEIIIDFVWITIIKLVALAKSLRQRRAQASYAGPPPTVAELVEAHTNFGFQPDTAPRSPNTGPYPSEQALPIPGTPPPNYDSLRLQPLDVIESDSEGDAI
# T1 sequence (P51170 1-649): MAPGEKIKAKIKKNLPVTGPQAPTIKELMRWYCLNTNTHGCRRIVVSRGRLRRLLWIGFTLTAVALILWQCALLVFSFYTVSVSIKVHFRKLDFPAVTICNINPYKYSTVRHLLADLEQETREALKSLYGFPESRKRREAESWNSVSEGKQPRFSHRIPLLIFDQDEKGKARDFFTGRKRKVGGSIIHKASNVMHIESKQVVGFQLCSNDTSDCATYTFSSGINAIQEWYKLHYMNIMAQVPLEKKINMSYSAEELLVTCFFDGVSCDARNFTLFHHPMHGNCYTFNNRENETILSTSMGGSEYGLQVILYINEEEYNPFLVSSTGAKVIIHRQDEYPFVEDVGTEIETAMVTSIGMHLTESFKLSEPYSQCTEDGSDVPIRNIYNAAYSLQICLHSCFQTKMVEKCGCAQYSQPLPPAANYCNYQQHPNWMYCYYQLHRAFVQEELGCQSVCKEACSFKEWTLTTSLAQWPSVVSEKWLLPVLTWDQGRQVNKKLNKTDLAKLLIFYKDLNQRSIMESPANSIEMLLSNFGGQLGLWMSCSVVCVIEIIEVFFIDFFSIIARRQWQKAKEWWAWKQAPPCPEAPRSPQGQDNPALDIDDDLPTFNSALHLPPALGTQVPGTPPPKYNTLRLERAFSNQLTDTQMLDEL
# Experiment: Thin film amiloride-sensitive transepithelial PD in CF HBECs
# Format: cell-based
# Details: 10 μM S18, over 24 h
# Procedure: A, airway surface liquid (ASL) height with time in CF HBECs measured by XZ confocal microscopy after apical addition of 20 μl Ringer with rhodamine-dextran. ▪=control; ▴=10 μM S18. Both n=6. B, Thin film amiloride-sensitive transepithelial PD measured in the same cultures as A, with microelectrodes positioned in the ASL and serosal bath. Open bars, control, closed bars, S18, n=6. C, Dose response to S18 vs. ASL height in CF primary human bronchial epithelial cultures (HBECs) measured 8 h after S18 addition. D, Bar graph of 8 h ASL height in CF HBECs. Control (open bars), S18 black bars, aprotinin, gray bars. NE, neutrophil elastase. ANS, activated neutrophil supernatant. All n=6. *p<0.05 different to vehicle. †p<0.05 different to aprotinin.
# A single-barreled potential difference-sensing electrode was placed in the airway surface liquid by micromanipulator and used in conjunction with a macroelectrode in the serosal solution to measure transepithelial voltage using a voltmeter (World Precision Instruments). […] Transepithelial resistance was routinely measured using the EVOM system (WPI) as previously described (Tarran et al., J. Gen. Physiol. 127:591 (2006)).
sequence,measurement,value
GGLPVPLDQTLPLNVNPA [S18],amiloride-sensitive PD,reduced the amiloride-sensitive PD
